Assay results: patent publication US20030008273A1, “Methods for increasing the survival of neuronal cells” (priority 2001, published 2003)
Entries after “also recorded” stand apart in the source; their conditions may differ.

Experiments:
[1] = system: primary ventral midbrain cells (dopamine secreting cells); test: Primary ventral midbrain cultures, count of TH-immunoreactive (dopamine) cells; type: cell-based, rat; details: for number of TH-immunoreactive (IR) cells: ligand alone, increasing concentrations, 3-5 days
Procedure: (§1) Ventral midbrains from rat embryos at stage E15.5 were dissected, mechanically dissociated, and plated on poly-D-lysine coated 12 well plates in serum-free medium (N2; consisting of a 1:1 mixture of F12 and MEM with 5 μg/ml insulin, 100 μg/ml transferrin, 60 μM putrescine, 20 nM progesterone, 30 nM selenium, 6 mg/ml glucose and 1 mg/ml bovine serum albumin).
(§2) Ventral midbrain, cortex and hippocampus from rat embryos at stage E14.5-15.5 were dissected, mechanically dissociated and plated on poly-D-lysine coated 12 or 24 well plates in serum free media (N2, consisting of a 1:1 mixture of MEM (+15 mM HEPES buffer) and Ham's F12 medium (+6 mg/ml glucose, 1 mg/ml bovine serum albumin, 5 ug/ml insulin, 100 ug/ml transferrin, 60 μM putrescine, 20 nM progesterone, 30 nM selenium and 1 mM glutamine). Ligands (all-trans RA, 9-cis retinoic acid, LG268, docosahexanoic acid (DHA), SR11237, TTNPB, and LB1208; stock solutions in DMSO) were diluted to working concentrations in N2, added to cells and incubated 3-5 days. GDNF was dissolved in phosphate-buffered saline (PBS) containing 1 mg/ml bovine serum albumin. These experiments were conducted in triplicate. Paraformaldehyde fixed cultures were then incubated over night with anti-tyrosine hydroxylase (TH) (1:1000, Pel-Freez), anti-NeuN (1:200, Chemicon) or anti-Nurr1 (1: 10,000, Santa Cruz) antibodies in PBS containing 0.5% (TH and NeuN) or 10% (Nurr1) fetal calf serum and 0.3% triton X100. Following rinses, cultures were incubated with biotinylated secondary antibody followed by detection of immuno-staining using the ABC immunoperoxidase kit from Vector. Cells were counted using brightfield microscopy (Nikon Eclipse EM 300). Cell counting was performed independently by two individuals to derive unbiased results.

[2] = system: RAR; test: Luciferase reporter assay in JEG3 cells transfected with gal4-RAR; type: cell-based; details: JEG3, MH100-tk-luc reporter
Procedure: (§4) Human choriocarcinoma cells, JEG3, were transfected in triplicate in 24-well plates. […] Each well was transfected with 100 ng of the gal4-binding luciferase reporter construct, MH100-tk-luc, 100 ng of CMX-RXR (Perlmann et al. (1995) Genes and Dev. 9: 769-782), and 100 ng of either CMX-gal4-Nurr1 (Perlmann et al. (1995) Genes and Dev. 9: 769-782), or CMX-gal4-Nurr1 dim^−.
(§5) In reporter assays of conditioned media and 9-cis retinoic acid titration experiments, a CMX-gal4-RAR construct (Perlmann et al. (1995) Genes and Dev. 9: 769-782) was also used. In all experiments, CMX-βgal (200 ng) (Perlmann et al. (1995) Genes and Dev. 9, 769-782) was used as an internal control. Following transfection of JEG3 cells (6 hours post-transfection), calcium precipitate was removed by washing with fresh medium. Tissue explants or conditioned media were then added to the cells. After 24 hours, cells were harvested and assayed for luciferase and reference β-galactosidase activity on a luminometer/photometer.

[3] = system: RXR (Nurr1-RXR heterodimer); details: JEG3, MH100-tk-luc reporter
Procedure: as §4, §5
Reporter experiments were performed as previously described. […] Briefly, an expression vector encoding a derivative of the orphan-nuclear receptor Nurr1 (GAL4-Nurr1), was cotransfected into JEG3 cells with an expression vector encoding RXR and a reporter expression vector containing GAL4 binding sites in operable linkage with a luciferase reporter gene. […]

[4] = system: primary ventral mesencephalic cultures; test: Primary ventral mesencephalic cultures, count of NeuN-positive cells; type: cell-based, rat
Procedure: as §2, with “Cell counting was performed independently by two individuals to derive unbiased results.” left out

[5] = system: Nurr1+/+ cortical cells; test: Primary cortical cultures from wild-type (Nurr1+/+) mice, NeuN count; type: cell-based, mouse; details: 0.1 μM, three days
Procedure: (§3) Nurr1^+/− females were mated with Nurr1^+/− males to generate embryo litters of mixed genotypes (25%^+/+, 50%^+/− and 25%^−/−) as previously described (Zetterström et al, Science 1997). Pregnant females were sacrificed and embryos at embryonic stage E15.5 were dissected. Tails were removed for genotyping. Brains were fine-dissected and meninges removed. Both cortices from each embryo were removed and placed in 500 μl culture medium (N2). When all embryos in the litter were dissected, the cortices were triturated by mechanical dissociation using a fire-polished Pasteur pipette. […] To avoid excessive cell death due to the extended dissection period when using gene targeted mice as compared to wild-type rats, 50 μl cell suspension was routinely plated. This generated cultures in the range of 200.000-470.000 cells per well. Six wells were plated per embryo; three were incubated in N2 only and three with N2+0.1 μM LG268. Cells were incubated for three days and thereafter fixed in 4% paraformaldehyde for 30 minutes and rinsed. For detection of neuronal nuclei, NeuN (diluted 1:300, Chemicon) was used in immunohistochemistry where visualization was with the ABC-kit from Vector. Cells were counted using brightfield microscopy (Eclipse E300M).

[6] = system: hippocampal cultures; test: Primary hippocampal cultures, count of Nurr1-positive and non-expressing cells; type: cell-based, rat
Procedure: as §2, with “Cell counting was performed independently by two individuals to derive unbiased results.” left out

[7] = system: cortex cultures; test: Primary cortex cultures, count of Nurr1-positive and non-expressing cells; type: cell-based, rat
Procedure: as §2, with “Cell counting was performed independently by two individuals to derive unbiased results.” left out

[8] = system: Nurr1-/- cortical cells; test: Primary cortical cultures from Nurr1-knock-out (Nurr1-/-) mice, NeuN count; type: cell-based, mouse; details: 0.1 μM, three days
Procedure: as §3

[9] = system: primary midbrain cultures; test: BrdU pulse labeling of primary midbrain cultures (proliferation); type: cell-based, rat; details: 0.1 μM
Procedure: as §1
Bromodeoxyuridine (BrdU) was added in relevant experiments 4-6 hours before fixation. After fixation with 4% paraformaldehyde for 45 minutes, cells were rinsed in PBS. BrdU incorporation was detected by incubating cells with 2 M hydrochloric acid prior to digesting with 0.25% pepsin (Sigma). Following PBS rinses, cells were incubated in blocking solution (0.5% bovine serum albumin, 0.5% Tween-20 in PBS), and thereafter incubated with anti-BrdU antibody (Dako A/S; diluted 1:20 in blocking solution) at 4° C. overnight. Antibody-binding was detected with anti-mouse CY3-conjugated IgG (Jackson ImmunoResearch Labs Inc.). Cells were analyzed using inverted epifluorescent microscopy.

## CC1=C(/C=C/C(C)=C\C=C\C(C)=C\C(=O)O)C(C)(C)CCC1 [9cisRA, 9-cis retinoic acid]
[1]; increasing concentrations combined with R041-5253 (RO)
  number of TH-IR neurons when combined with RAR antagonist RO: increase with increasing concentrations
[1]
  number of TH-immunoreactive (IR) cells: does not affect the number of TH-IR cells
[2]
  activation of RAR reporter (titration): efficient ligand
[3]
  activation of RXR reporter (titration): efficient ligand

## CC/C=C\C/C=C\C/C=C\C/C=C\C/C=C\C/C=C\CCC(=O)O [DHA, docosahexanoic acid]
[1]
  number of TH-immunoreactive (IR) cells: increased the number of TH-IR cells in a dose-dependent manner; also recorded: efficiently increased the number of dopamine neurons
[4]
  number of NeuN-positive cells (entire neuronal-cell population): do not produce a general increase

## Cc1cc2c(cc1C1(c3ccc(C(=O)O)cn3)CC1)C(C)(C)CCC2(C)C [LG268]
[5]
  total number of neurons (NeuN immunoreactivity): significantly increased
[1]; FIG. 12C, comparison of SR11237, LG268 and GDNF
  efficiency compared to GDNF (TH-IR cells): more potent than either SR11237 or GDNF
[1]
  number of TH-immunoreactive (IR) cells: dose-dependent increase; also recorded: efficiently increased the number of dopamine neurons
[6]
  increase in number of Nurr1-positive cells: 36%
  number of Nurr1 non-expressing cells: did not increase
[7]
  increase in number of Nurr1-positive cells: 39%
  number of Nurr1 non-expressing cells: did not increase
[4]
  number of NeuN-positive cells (entire neuronal-cell population): do not produce a general increase
[8]
  total number of neurons (NeuN immunoreactivity): no increase

## CC1(C)CCC(C)(C)c2cc(C3(c4ccc(C(=O)O)cc4)OCCO3)ccc21 [SR11237]
[1]; 72 hour incubation, compared to TTNPB, all-trans retinoic acid or no RXR ligand
  number of dopamine secreting cells: increased dopamine secreting cells
[1]
  number of TH-immunoreactive (IR) cells: dose-dependent increase
[9]
  proliferation (BrdU): not due to increased proliferation

## C/C(=C\c1ccc(C(=O)O)cc1)c1ccc2c(c1)C(C)(C)CCC2(C)C [TTNPB]
[1]; in the presence of LG268
  effect on the neurotrophic effect of LG268: blocks the neurotrophic effect
[1]
  number of TH-immunoreactive (IR) cells: does not increase the number of TH-IR cells
